According to patent US5135943A, “1H-imidazole derivative compounds and pharmaceutical compositions containing the same” (priority 1984, dated 1992):
In brackets after ≈: the same amount, converted by molar mass.

Columns and labels:
[1] = tested on: Candida albicans; assay: MIC by two-fold dilution, Candida albicans; format: cell-based
Source text: (§1) A number of compounds with antimycotic and/or fungicidal properties, which are useful in pharmaceutical compositions, are currently known. These include the commercially successful Miconazole having the formula II [drawing 2] Miconazole has a structure chemically similar to the 1H-imidazole derivative compounds of the invention. Miconazole is effective against a number of yeasts, dermatophytes and fungi. This effectiveness can be measured by culturing these microorganisms in vitro and applying a preparation containing the antimycotic compound, Miconazole. The results of this type of in vitro experiment is expressed in terms of the Minimum Inhibitory Concentration (MIC), i.e. the minimum concentration which inhibits the growth of the microorganism. For example, the MIC for Miconazole against a particular Candida albicans strain is found to be 10.7 micrograms/milliliter. The effectiveness of Miconazole as an antimycotic compound is measured in vivo by applying a suspension containing the drug to the skin of a number of animals and measuring the proportion of animals on which growth of the microorganism is inhibited as a function of time. Typically, after 25 days, about 1/4 of the animals were cured, when treated with a cream containing 2 % by weight Miconazole. Of course, any pharmaceutical preparation for treating a disease in a human must satisfy certain toxicity requirements. […] Toxicity tests have been performed on the IH-imidazole derivative compounds of the invention and on Miconazole and other known compounds having antimycotic properties. In toxicity tests the LD50 (the dose at which 50 % mortality occurs) is measured.
(§2) Minimum Inhibitory Concentrations (MICS) of Sertaconazole and Miconazole against 107 yeasts, 47 dermatophytes and 4 fungi were determined by a two-fold dilution method.

[2] = tested on: Candida tropicalis; assay: MIC by two-fold dilution, Candida tropicalis; format: cell-based; details: 10 strains, read-out: Minimum Inhibitory Concentration
Description: as §2

[3] = tested on: Torulopsis glabrata; assay: MIC by two-fold dilution, Torulopsis glabrata; format: cell-based; details: Nakaseomyces glabratus; 10 strains; read-out: Minimum Inhibitory Concentration
Description: as §2

[4] = tested on: Candida s.p.; assay: MIC by two-fold dilution, Candida s.p.; format: cell-based
Description: as §2

[5] = tested on: Malasezzia furfur; assay: MIC by two-fold dilution, Malasezzia furfur; format: cell-based; details: 20 strains
Description: as §2

[6] = tested on: Trichophyton menta-grophytes; assay: MIC by two-fold dilution, Trichophyton mentagrophytes; format: cell-based; details: 30 strains, read-out: Minimum Inhibitory Concentration
Description: as §2

[7] = tested on: Microsporum canis; assay: MIC by two-fold dilution, Microsporum canis; format: cell-based; details: 4 strains, read-out: Minimum Inhibitory Concentration
Description: as §2

[8] = tested on: Dermatophytes, Others; assay: MIC by two-fold dilution, other dermatophytes; format: cell-based; details: 3 strains; read-out: Minimum Inhibitory Concentration
Description: as §2

[9] = tested on: Scopulariopsis brevi-caulis; assay: MIC by two-fold dilution, Scopulariopsis brevicaulis; format: cell-based
Description: as §2

[10] = tested on: Trichophyton mcntagrophytes; assay: Dermal infection in albino female guinea pigs by Trichophyton mentagrophytes; format: in vivo, guinea pig; details: for % microbiological healing / Negative Cultures to Total Cultures: 2% cream
Source text: as §1
Dermal infection in albino female guinea pigs by Trichophyton mcntagrophytes has been studied. Animals were distributed in three groups: a) a control group of infected untreated animals; b) a scrtaconazole group of infected and treated animals; and c) a miconazole group of infected and treated animals. Animals were depleted and a 0.4 ml suspension of the microorganism was applied on the depleted area. Treatment with each of the test drugs was made by application of 1 g of 2% cream on the depleted area on the 4th, 5th and 6th day after infection.

[11] = tested on: Candida albicans; assay: Vaginal infection by Candida albicans in female mice; format: in vivo; details: seven days after infection
Source text: Besides the above in vivo experiments vaginal infection by Candida albicans was studied in female mice. Standard methods were used. […] Similar results were found in experiments where repeated dosages of active compound were used after infection. These in vivo results confirmed the surprising speed of action of Sertaconazole in comparison to the prior art compounds.

[12] = Acute toxicity (LD50) in mouse, three administration routes; details: in vivo, males
Source text: as §1
(§3) Toxicity of Sertaconazole, Microazole and Martin's compounds 1, 2 and 3, as shown below, has been tested by standard methods. Both acute toxicity, subacute toxicity and chronic toxicity were studied
(§4) Oral, intraperitoneal and subcutaneous acute toxicity of sertaconazole and miconazole have been investigated. LD50 in mouse and rat, male and female, were measured.

[13] = Acute toxicity (LD50) in rat, three administration routes; details: in vivo, males
Description: as §3, §4

[14] = Prolonged subacute toxicity in rats; format: in vivo, rat; details: rat, in vivo, po
Description: (§5) In a study of prolonged subacute toxicity of Miconazole in rats, among other effects, significant hepatomegalias in females with a dosage of under 30 mg/kg p.o. and in males with a dosage of under 60 mg/kg p.o. were observed.

[15] = tested on: rats; assay: Chronic toxicity in rats; format: in vivo, rat; details: even at dosage levels of 300 mg/kg
[16] = Safe dosage based on the toxicity findings; details: in vivo
Description: as §5
Based on these finds a safe dosage for Miconazole is about 10 mg/kg, while a safe dosage for Sertaconzole is about 150 mg/kg, i.e about 15 times higher.

[17] = tested on: cutaneous mycosis; assay: Randomized double blind clinical trials, cutaneous mycosis; details: 2 % cream (nitrate salts)
Description: (§6) Human clinical trials were performed with Sertaconazole nitrate and Miconazole nitrate acid addition salts. Randomized double blind trials were carried out with 502 patients suffering from cutaneous mycosis as confirmed by microscopic examination and microbiological culture. 247 patients were treated with 2 % Sertaconazole cream and the remaining 255 patients were treated with 2 % Miconazole cream. All patients received scheduled treatment for 28 days and were followed up for an additional 28 days for possible relapses.

[18] = tested on: Trichophyton rubrum; assay: Randomized double blind clinical trials, Trichophyton rubrum infection; format: in vivo, human; details: 2 % cream (nitrate salts), 28 days treatment
Description: as §6

[19] = tested on: Swiss mice; details: mouse, in vivo
Source text: Such signs included convulsions and Straub tail(vertical righting of the tail).

In the case of `Clc1ccc(C(Cn2ccnc2)OCc2csc3c(Cl)cccc23)c(Cl)c1` (stereo not drawn) [Sertaconazole], the MIC ([1]; Candida albicans, 52 strains, read-out: Minimum Inhibitory Concentration) is reported as 6 µg/mL (≈ 13.7 µM), the “increase of activity in comparison to Miconazole” value (“increase of activity” below) ([1]; in vitro) is reported as 43.9% and the MIC [2] is reported as 5.6 µg/mL (≈ 12.8 µM). For the same compound, the MIC [3] was 1.5 µg/mL (≈ 3.43 µM), the MIC ([4]; Candida, 15 strains, read-out: Minimum Inhibitory Concentration) was 0.5 µg/mL (≈ 1.14 µM) and the “increase of activity” value ([4]; in vitro) was 47.4%. The “Minimum Inhibitory Concentration” value [5] was 25/8, the MIC [6] was 2.6 µg/mL (≈ 5.94 µM) and the MIC [7] was 2.8 µg/mL (≈ 6.4 µM). For the same compound, the MIC [8] was 2.5 µg/mL (≈ 5.71 µM), the MIC ([9]; Scopulariopsis, 4 strains, read-out: Minimum Inhibitory Concentration) was 8 µg/mL (≈ 18.3 µM) and the “increase of activity” value ([9]; in vitro) was 75%. The “% microbiological healing” value ([10]; 18 days postinfection) was 56%, the “Negative Cultures to Total Cultures” value ([10]; 18 days postinfection) was 27/48 and the “% microbiological healing” value ([10]; 25 days postinfection) was 75%. The “Negative Cultures to Total Cultures” value ([10]; 25 days postinfection) was 36/48, the “% microbiological healing” value ([10]; 32 days postinfection) was 84% and the “Negative Cultures to Total Cultures” value ([10]; 32 days postinfection) was 40/48. The “activity higher than Miconazole” value ([10]; 18th day postinfection) was 9 times, the “activity higher than Miconazole” value ([10]; 25th day postinfection) was 2.7 times and the “activity higher than Miconazole” value ([10]; 32nd day postinfection) was 1.9 times. For the same compound, the animals healed [11] was 75%, the LD50 ([12]; ip, intraperitoneal) was > 8000 mg/kg and the LD50 ([12]; oral) was > 8000 mg/kg. For the same compound, the LD50 ([12]; sc, subcutaneous) was > 8000 mg/kg, the LD50 ([13]; ip, intraperitoneal) was > 8000 mg/kg and the LD50 ([13]; oral) was > 8000 mg/kg. The LD50 ([13]; sc, subcutaneous) was > 8000 mg/kg, the NOAEL [14] was ≥ 300 mg/kg and the mortality [15] was “no mortality was observed”. For the same compound, the “safe dosage higher than that of Miconazole” value [16] was “about 15 times”, the NOAEL ([16]; rat) was ~150 mg/kg and the “side effects (contact dermatitis)” value [17] was “no such side effects”. For the same compound, the “more effective than Miconazole” value ([17]; 28 days treatment) was 20.8%, the “effectiveness against Trichophyton rubrum” value [18] was 100% and the “less toxic than Martin Compound 1” value [19] was 8-15 times. For the same compound, the “signs of intoxication in the central nervous system (convulsions and Straub tail)” value [19] was “not observed”, the LD0 ([19]; ip) was 4000 mg/kg and the LD50 ([19]; ip) was 8000 mg/kg.
